Laboratory results taken from patent US20090018111A1, “Novel Antimicrobial Medicament” (priority 2004, published 2009).

Columns and labels:
S. aureus 209P = assay: Sensitivity test (agar dilution); format: cell-based, Staphylococcus aureus
Method: (§1) The antibacterial activities were tested against various 18 bacteria (27 standard strains) which are representative bacteria caused clinically infectious disease (Staphylococcus aureus 3 strains, Staphylococcus epidermidis 1 strain, Micrococcus luteus 1 strain, Streptococcus pyogenes 1 strain, Enterococcus faecalis 1 strain, Enterococcus faecium 1 strain, Bacillus subtilis 1 strain, Escherichia coli 3 strains, Klebsiella pneumoniae 1 strain, Proteus mirabilis 1 strain, Proteus vulgaris 2 strains, Pseudomonas aeruginosa 3 strains, Serratia marcescens 2 strains, Enterobacter aerogenes 1 strain, Stenotrophomonas maltophilia 1 strain, Enterobacter cloacae 1 strain, Citrobacter freundii 1 strain, Moraxella catarrhalis 2 strains).
(§2) According to the standard method of Japan Chemotherapeutic Society (Chemotherapy, vol. […], p 76-79 (1981)) the test was carried out using the agar dilution method. After dissolving test samples in distilled water, agar medium containing the test samples was prepared in such a manner that the final concentration became twice serial dilution by pouring serially diluted combination drug solution or a single drug solution into agar medium. As agar medium was used Mueller Hinton Agar medium (MHA). Then, each strain was cultivated over night at 37° C. in an incubator and suspended in buffered saline solution with gelatin (BSG) in the concentration of about 10^6 CFU/ml. The suspension (about 5 μl) containing test strains was inoculated to the medium containing the test samples by Micro Planter.
(§3) When the sample is subjected to sensitivity test, this mixed solution was diluted by twice serial dilution method.
(§4) Furthermore, when the drug is solely used, each test sample was used as it is, and diluted by twice serial dilution method from the maximum concentration to the minimum concentration.
(§5) FIC index based on MIC value was calculated. […] Namely, when FIC index calculated by the following formula is equal or less than 1, the enhanced effect of the combination drug in said ratio is considered as positive. When FIC index is over 1, the enhanced effect of the combination drug in said ratio is considered as negative.
(§6) Formula of FIC index: FIC index=(MIC of Drug A in combination/MIC of Drug A alone)+(MIC of Drug B in combination/MIC of Drug B alone) N.C. in tables means being not calculated.

[1] = test system: S. aureus MS94088 (hetero-MRSA); assay: Sensitivity test (agar dilution); format: cell-based, Staphylococcus aureus
Method: as §1, §2, §3, §4, §5, §6

[2] = test system: S. aureus SP-7928 (homo-MRSA); assay: Sensitivity test (agar dilution); format: cell-based, Staphylococcus aureus
Method: as §1, §2, §3, §4, §5, §6

S. epidermidis IAM1296 = assay: Sensitivity test (agar dilution); format: cell-based, Staphylococcus epidermidis
Method: as §1, §2, §3, §4, §5, §6

M. luteus ATCC9341 = assay: Sensitivity test (agar dilution); format: cell-based, Micrococcus luteus
Method: as §1, §2, §3, §4, §5, §6

Str. pyogenes Cook = assay: Sensitivity test (agar dilution); format: cell-based, Streptococcus pyogenes
Method: as §1, §2, §3, §4, §5, §6

E. faecalis ATCC19433 = assay: Sensitivity test (agar dilution); format: cell-based, Enterococcus faecalis
Method: as §1, §2, §3, §4, §5, §6

E. faecium ATCC19434 = assay: Sensitivity test (agar dilution); format: cell-based, Enterococcus faecium
Method: as §1, §2, §3, §4, §5, §6

B. subtilis ATCC6633 = assay: Sensitivity test (agar dilution); format: cell-based, Bacillus subtilis
Method: as §1, §2, §3, §4, §5, §6

E. coli ML1410 = assay: Sensitivity test (agar dilution); format: cell-based, Escherichia coli; conditions: alone
Method: as §1, §2, §3, §4, §5, §6

E. coli NIHJ JC-2 = assay: Sensitivity test (agar dilution); format: cell-based, Escherichia coli
Method: as §1, §2, §3, §4, §5, §6

E. coli ML1410 RP4 = assay: microbe, parasite or virus in culture; format: cell-based, Escherichia coli; conditions: alone
Method: as §1, §2, §3, §4, §5, §6

K. pneumoniae ATCC10031 = assay: Sensitivity test (agar dilution); format: cell-based, Klebsiella pneumoniae
Method: as §1, §2, §3, §4, §5, §6

P. mirabiris GN2425 = assay: Sensitivity test (agar dilution); format: cell-based, Proteus mirabilis
Method: as §1, §2, §3, §4, §5, §6

P. vulgaris GN7919 = assay: Sensitivity test (agar dilution); format: cell-based, Proteus vulgaris
Method: as §1, §2, §3, §4, §5, §6

P. vurgalis OX-19 = assay: Sensitivity test (agar dilution); format: cell-based, Proteus vulgaris
Method: as §1, §2, §3, §4, §5, §6

S. marcescens GN6473 = assay: Sensitivity test (agar dilution); format: cell-based, Serratia marcescens
Method: as §1, §2, §3, §4, §5, §6

S. marcescens X 100 = assay: Sensitivity test (agar dilution); format: cell-based, Serratia marcescens
Method: as §1, §2, §3, §4, §5, §6

E. aerogenes ATCC13048 = assay: Sensitivity test (agar dilution); format: cell-based, Enterobacter aerogenes
Method: as §1, §2, §3, §4, §5, §6

E. cloacae GN7471 = assay: Sensitivity test (agar dilution); format: cell-based, Enterobacter cloacae
Method: as §1, §2, §3, §4, §5, §6

C. freundii GN346 = assay: Sensitivity test (agar dilution); format: cell-based, Citrobacter freundii
Method: as §1, §2, §3, §4, §5, §6

P. aeruginosa IFO3451 = assay: Sensitivity test (agar dilution); format: cell-based, Pseudomonas aeruginosa
Method: as §1, §2, §3, §4, §5, §6

P. aeruginosa TL-2666 = assay: Sensitivity test (agar dilution); format: cell-based, Pseudomonas aeruginosa
Method: as §1, §2, §3, §4, §5, §6

P. aeruginosa TL-2667 = assay: Sensitivity test (agar dilution); format: cell-based, Pseudomonas aeruginosa
Method: as §1, §2, §3, §4, §5, §6

S. maltophilia IID1275 = assay: Sensitivity test (agar dilution); format: cell-based, Stenotrophomonas maltophilia
Method: as §1, §2, §3, §4, §5, §6

M. catarrhalis ATCC25238 = assay: Sensitivity test (agar dilution); format: cell-based, Moraxella catarrhalis
Method: as §1, §2, §3, §4, §5, §6

M. catarrhalis ATCC8176 = assay: Sensitivity test (agar dilution); format: cell-based, Moraxella catarrhalis
Method: as §1, §2, §3, §4, §5, §6

[3] = test system: 18 bacteria (27 standard strains); assay: Sensitivity test, combination effect over the standard strains; format: cell-based; conditions: in combination with compound 1, standard strains
Method: as §1, §2, §3, §5, §6

C[C@@H](O)[C@H]1C(=O)N2C(C(=O)O)=C(SCCN=CN)C[C@H]12 [IPM, imipenem]
MIC (S. aureus 209P; Concomitant (IPM:SM = 1:1)): 0.004 µg/mL
MIC (S. aureus 209P; alone): 0.008 µg/mL
MIC ([1]; Concomitant (IPM:SM = 1:1)): 0.25 µg/mL
MIC ([1]; alone): 0.125 µg/mL
MIC ([2]; Concomitant (IPM:SM = 1:1)): 2 µg/mL
MIC ([2]; alone): >32 µg/mL
MIC (S. epidermidis IAM1296; Concomitant (IPM:SM = 1:1)): 0.016 µg/mL
MIC (S. epidermidis IAM1296; alone): 0.25 µg/mL
MIC (M. luteus ATCC9341; Concomitant (IPM:SM = 1:1)): 0.004 µg/mL
MIC (M. luteus ATCC9341; alone): 0.024 µg/mL
MIC (Str. pyogenes Cook; Concomitant (IPM:SM = 1:1)): ≦0.002 μg/ml
MIC (Str. pyogenes Cook; alone): ≦0.002 μg/ml
MIC (E. faecalis ATCC19433; Concomitant (IPM:SM = 1:1)): 0.5 µg/mL
MIC (E. faecalis ATCC19433; alone): 1 µg/mL
MIC (E. faecium ATCC19434; Concomitant (IPM:SM = 1:1)): 0.125 µg/mL
MIC (E. faecium ATCC19434; alone): 4 µg/mL
MIC (B. subtilis ATCC6633; Concomitant (IPM:SM = 1:1)): ≦0.002 μg/ml
MIC (B. subtilis ATCC6633; alone): 0.016 µg/mL
MIC (E. coli ML1410): 0.25 µg/mL
MIC (E. coli NIHJ JC-2; Concomitant (IPM:SM = 1:1)): 0.063 µg/mL
MIC (E. coli NIHJ JC-2; alone): 0.125 µg/mL
MIC (E. coli ML1410 RP4): 0.5 µg/mL
MIC (K. pneumoniae ATCC10031; Concomitant (IPM:SM = 1:1)): 0.031 µg/mL
MIC (K. pneumoniae ATCC10031; alone): 0.125 µg/mL
MIC (P. mirabiris GN2425; Concomitant (IPM:SM = 1:1)): 0.25 µg/mL
MIC (P. mirabiris GN2425; alone): 1 µg/mL
MIC (P. vulgaris GN7919; Concomitant (IPM:SM = 1:1)): 0.5 µg/mL
MIC (P. vulgaris GN7919; alone): 1 µg/mL
MIC (P. vurgalis OX-19; Concomitant (IPM:SM = 1:1)): 0.063 µg/mL
MIC (P. vurgalis OX-19; alone): 1 µg/mL
MIC (S. marcescens GN6473; Concomitant (IPM:SM = 1:1)): 0.25 µg/mL
MIC (S. marcescens GN6473; alone): 0.25 µg/mL
MIC (S. marcescens X 100; Concomitant (IPM:SM = 1:1)): 0.125 µg/mL
MIC (S. marcescens X 100; alone): 0.25 µg/mL
MIC (E. aerogenes ATCC13048; Concomitant (IPM:SM = 1:1)): 0.125 µg/mL
MIC (E. aerogenes ATCC13048; alone): 0.25 µg/mL
MIC (E. cloacae GN7471; Concomitant (IPM:SM = 1:1)): 0.125 µg/mL
MIC (E. cloacae GN7471; alone): 0.125 µg/mL
MIC (C. freundii GN346; Concomitant (IPM:SM = 1:1)): 0.25 µg/mL
MIC (C. freundii GN346; alone): 0.5 µg/mL
MIC (P. aeruginosa IFO3451; Concomitant (IPM:SM = 1:1)): 0.5 µg/mL
MIC (P. aeruginosa IFO3451; alone): 1 µg/mL
MIC (P. aeruginosa TL-2666; Concomitant (IPM:SM = 1:1)): 1 µg/mL
MIC (P. aeruginosa TL-2666; alone): 2 µg/mL
MIC (P. aeruginosa TL-2667; Concomitant (IPM:SM = 1:1)): 8 µg/mL
MIC (P. aeruginosa TL-2667; alone): 8 µg/mL
MIC (S. maltophilia IID1275; Concomitant (IPM:SM = 1:1)): >32 µg/mL
MIC (S. maltophilia IID1275; alone): >32 µg/mL
MIC (M. catarrhalis ATCC25238; Concomitant (IPM:SM = 1:1)): ≦0.002 μg/ml
MIC (M. catarrhalis ATCC25238; alone): 0.008 µg/mL
MIC (M. catarrhalis ATCC8176; Concomitant (IPM:SM = 1:1)): ≦0.002 μg/ml
MIC (M. catarrhalis ATCC8176; alone): 0.008 µg/mL
combination effect [3]: the combination effect was recognized
